According to patent publication US20260217767A1, “NOVEL A4B7 THIOETHER PEPTIDE DIMER ANTAGONISTS” (Protagonist Therapeutics, Inc., priority 2014, published 2026):
Where a SMILES comes first, the peptide text is derived from it.

The molecules below were run against T1, RPMI 8866 cells (Homo sapiens, UniProt P13612+P26010) (assay: α4β7-MAdCAM Cell Adhesion Assay). Conditions: thioether peptide dimers, Table 7; read-out: Cell-Adhesion A4B7.
T1 sequence (P13612 34-1032): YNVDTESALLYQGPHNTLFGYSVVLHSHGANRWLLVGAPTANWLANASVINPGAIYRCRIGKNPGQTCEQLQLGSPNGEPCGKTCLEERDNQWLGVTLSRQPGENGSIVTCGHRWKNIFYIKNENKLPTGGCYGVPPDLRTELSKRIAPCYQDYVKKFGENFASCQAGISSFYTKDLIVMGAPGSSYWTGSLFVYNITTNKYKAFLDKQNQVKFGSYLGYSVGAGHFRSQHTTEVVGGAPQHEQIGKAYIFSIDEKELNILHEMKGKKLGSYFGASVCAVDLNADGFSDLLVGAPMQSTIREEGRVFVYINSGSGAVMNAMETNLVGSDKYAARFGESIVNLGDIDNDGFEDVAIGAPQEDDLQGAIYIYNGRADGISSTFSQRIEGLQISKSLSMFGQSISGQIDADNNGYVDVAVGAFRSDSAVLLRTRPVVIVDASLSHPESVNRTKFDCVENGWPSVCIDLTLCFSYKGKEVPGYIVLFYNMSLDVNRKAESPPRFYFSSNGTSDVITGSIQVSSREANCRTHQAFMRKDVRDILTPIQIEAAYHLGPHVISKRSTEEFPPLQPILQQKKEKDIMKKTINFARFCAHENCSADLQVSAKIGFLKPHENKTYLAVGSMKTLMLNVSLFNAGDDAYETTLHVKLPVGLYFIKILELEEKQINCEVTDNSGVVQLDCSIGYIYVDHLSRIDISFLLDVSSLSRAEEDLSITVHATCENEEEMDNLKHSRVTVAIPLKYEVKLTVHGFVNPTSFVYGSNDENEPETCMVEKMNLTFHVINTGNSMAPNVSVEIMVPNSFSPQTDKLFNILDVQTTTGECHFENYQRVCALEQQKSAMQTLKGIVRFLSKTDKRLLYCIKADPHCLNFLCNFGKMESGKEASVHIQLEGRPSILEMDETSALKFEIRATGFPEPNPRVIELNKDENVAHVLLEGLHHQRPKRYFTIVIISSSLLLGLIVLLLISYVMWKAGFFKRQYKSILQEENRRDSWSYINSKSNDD
T1 sequence (P26010 20-798): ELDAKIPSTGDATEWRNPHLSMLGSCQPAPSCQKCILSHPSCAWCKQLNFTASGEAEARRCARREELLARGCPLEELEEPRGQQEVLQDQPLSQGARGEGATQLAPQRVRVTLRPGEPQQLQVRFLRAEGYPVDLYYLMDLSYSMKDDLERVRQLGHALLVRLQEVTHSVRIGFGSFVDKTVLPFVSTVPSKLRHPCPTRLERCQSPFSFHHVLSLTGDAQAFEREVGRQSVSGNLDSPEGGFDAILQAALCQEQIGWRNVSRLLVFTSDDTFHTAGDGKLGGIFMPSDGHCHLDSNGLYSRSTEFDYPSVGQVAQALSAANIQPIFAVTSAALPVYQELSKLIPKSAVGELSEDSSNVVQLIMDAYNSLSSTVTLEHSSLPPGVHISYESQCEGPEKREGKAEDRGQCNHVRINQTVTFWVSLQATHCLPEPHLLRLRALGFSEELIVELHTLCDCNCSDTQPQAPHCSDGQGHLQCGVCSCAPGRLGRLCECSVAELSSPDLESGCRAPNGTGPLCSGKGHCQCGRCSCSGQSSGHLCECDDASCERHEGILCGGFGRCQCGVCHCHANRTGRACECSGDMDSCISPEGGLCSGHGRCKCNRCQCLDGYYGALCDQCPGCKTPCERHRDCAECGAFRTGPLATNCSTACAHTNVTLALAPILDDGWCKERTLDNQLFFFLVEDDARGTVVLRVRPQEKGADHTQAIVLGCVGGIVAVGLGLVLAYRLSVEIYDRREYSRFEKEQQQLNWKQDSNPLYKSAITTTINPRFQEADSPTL
Format: cell-based
Procedure: α4β7-MAdCAM Cell Adhesion Assay
RPMI 8866 cells (Sigma #95041316) were cultured in RPMI 1640 HEPES medium (Invitrogen #22400-089) supplemented with 10% serum (Fetal Bovine Serum, Invitrogen #16140-071), 1 mM sodium pyruvate (Invitrogen #11360-070), 2 mM L-glutamine (Invitrogen #25030-081) and Penicillin-Streptomycin (Invitrogen #15140-122) at 100 units of penicillin and 100 μg of streptomycin per ml. The cells were washed two times in DMEM medium (ATCC #30-2002) supplemented with 0.1% BSA, 10 mM HEPES pH 7 and 1 mM MnCl2. The cells were re-suspended in supplemented DMEM medium at a density of 4×10^6 cells/ml.
A Nunc MaxiSorp plate was coated with rh MAdCAM-1/Fc Chimera (R&D #6065-MC) at 200 ng per well in 50 ul per well in 1×PBS and incubated at 4° C. overnight. The solution was then removed by shaking, blocked with 250 ul per well PBS containing 1% BSA, and incubated at 37° C. for 1 hr. The solution was removed by shaking. Peptides were diluted by serial dilution in a final volume of 50 ul per well (2× concentration). To each well, 50 ul of cells (200,000 cells) were added and the plate was incubated at 37° C., 5% CO2 for 30-45 min to allow cell adhesion. The wells were washed manually three times (100 ul per wash) with supplemented DMEM. After the final wash, 100 μl/well of supplemented DMEM and 10 ul/well of MTT reagent (ATTC cat #30-1010K) were added. The plate was incubated at 37° C., 5% CO2 for 2-3 hrs until a purple precipitate is visible. 100 ul of Detergent Reagent (ATTC cat #30-1010K) was added to each well. The plate was covered from the light, wrapped in Parafilm to prevent evaporation, and left overnight at room temperature in the dark. The plate was shaken for 5 min and the absorbance at 570 nm is measured. To calculate the dose response, the absorbance value of control wells not containing cells was subtracted from each test well.
`CC(C)C[C@@H]1NC(=O)[C@H]([C@@H](C)O)NC(=O)[C@H](CC(=O)O)NC(=O)[C@H](CO)NC(=O)[C@H](CCCNC(=N)N)N(C)C(=O)c2ccccc2CSC(C)(C)[C@@H](C(=O)N[C@@H](Cc2c[nH]c3ccccc23)C(=O)N[C@H](CCC(=O)O)C(=O)N[C@H](Cc2ccccc2)C(=O)N[C@H](CCCCN)C(N)=O)NC1=O` [compound 198] (HELM PEPTIDE1{[meR].S.D.T.L.[Pen].W.[dE].[dF].[dK].[am]}|CHEM1{[O=C(c1ccccc1C[*:2])[*:1]]}$PEPTIDE1,CHEM1,1:R1-1:R1|PEPTIDE1,CHEM1,6:R3-1:R2$$$V2.0) showed an IC50 of under 25 nM. Work on `CC(C)C[C@@H]1NC(=O)[C@H]([C@@H](C)O)NC(=O)[C@H](CC(=O)O)NC(=O)[C@H](CO)NC(=O)[C@H](CCCNC(=N)N)N(C)C(=O)c2ccccc2CSC(C)(C)[C@@H](C(=O)N[C@@H](Cc2c[nH]c3ccccc23)C(=O)N[C@H](CCC(=O)O)C(=O)N[C@H](Cc2c[nH]cn2)C(=O)N[C@H](CCCCN)C(N)=O)NC1=O` [compound 199] (HELM PEPTIDE1{[meR].S.D.T.L.[Pen].W.[dE].[dH].[dK].[am]}|CHEM1{[O=C(c1ccccc1C[*:2])[*:1]]}$PEPTIDE1,CHEM1,1:R1-1:R1|PEPTIDE1,CHEM1,6:R3-1:R2$$$V2.0) yielded an IC50 of under 25 nM. Molecule `CC(C)C[C@@H]1NC(=O)[C@H]([C@@H](C)O)NC(=O)[C@H](CC(=O)O)NC(=O)[C@H](CO)NC(=O)[C@H](CCCNC(=N)N)N(C)C(=O)c2ccccc2CSC(C)(C)[C@@H](C(=O)N[C@@H](Cc2c[nH]c3ccccc23)C(=O)N[C@H](CCC(=O)O)C(=O)N[C@H](CCC(=O)O)C(=O)N[C@H](CCCCN)C(N)=O)NC1=O` [compound 200] (HELM PEPTIDE1{[meR].S.D.T.L.[Pen].W.[dE].[dE].[dK].[am]}|CHEM1{[O=C(c1ccccc1C[*:2])[*:1]]}$PEPTIDE1,CHEM1,1:R1-1:R1|PEPTIDE1,CHEM1,6:R3-1:R2$$$V2.0) has an IC50 of under 25 nM. With `CC(C)C[C@@H]1NC(=O)[C@H]([C@@H](C)O)NC(=O)[C@H](CC(=O)O)NC(=O)[C@H](CO)NC(=O)[C@H](CCCNC(=N)N)N(C)C(=O)c2ccccc2CSC(C)(C)[C@@H](C(=O)N[C@@H](Cc2c[nH]c3ccccc23)C(=O)N[C@H](CCC(=O)O)C(=O)N[C@H](Cc2ccc(O)cc2)C(=O)N[C@H](CCCCN)C(N)=O)NC1=O` [compound 201] (HELM PEPTIDE1{[meR].S.D.T.L.[Pen].W.[dE].[dY].[dK].[am]}|CHEM1{[O=C(c1ccccc1C[*:2])[*:1]]}$PEPTIDE1,CHEM1,1:R1-1:R1|PEPTIDE1,CHEM1,6:R3-1:R2$$$V2.0) the IC50 was under 25 nM. `CC(C)C[C@@H]1NC(=O)[C@H]([C@@H](C)O)NC(=O)[C@H](CC(=O)O)NC(=O)[C@H](CO)NC(=O)[C@H](CCCNC(=N)N)N(C)C(=O)c2ccccc2CSC(C)(C)[C@@H](C(=O)N[C@@H](Cc2c[nH]c3ccccc23)C(=O)N[C@@H](Cc2ccc(-c3ccccc3)cc2)C(=O)N[C@H](CCCCN)C(N)=O)NC1=O` [compound 202] (HELM PEPTIDE1{[meR].S.D.T.L.[Pen].W.[O=C([C@H](Cc1ccc(-c2ccccc2)cc1)N[*:1])[*:2]].[dK].[am]}|CHEM1{[O=C(c1ccccc1C[*:2])[*:1]]}$PEPTIDE1,CHEM1,1:R1-1:R1|PEPTIDE1,CHEM1,6:R3-1:R2$$$V2.0) showed an IC50 of 100 to 1000 nM. For `CC(C)C[C@@H]1NC(=O)[C@H]([C@@H](C)O)NC(=O)[C@H](CC(=O)O)NC(=O)[C@H](CO)NC(=O)[C@H](CCCNC(=N)N)N(C)C(=O)c2ccccc2CSC(C)(C)[C@@H](C(=O)N[C@@H](Cc2ccccc2)C(=O)N[C@@H](Cc2ccc(-c3ccccc3)cc2)C(=O)N[C@H](CCCCN)C(N)=O)NC1=O` [compound 203] (HELM PEPTIDE1{[meR].S.D.T.L.[Pen].F.[O=C([C@H](Cc1ccc(-c2ccccc2)cc1)N[*:1])[*:2]].[dK].[am]}|CHEM1{[O=C(c1ccccc1C[*:2])[*:1]]}$PEPTIDE1,CHEM1,1:R1-1:R1|PEPTIDE1,CHEM1,6:R3-1:R2$$$V2.0), the IC50 was 100 to 1000 nM. `CC(C)C[C@@H]1NC(=O)[C@H]([C@@H](C)O)NC(=O)[C@H](CC(=O)O)NC(=O)[C@H](CO)NC(=O)[C@H](CCCNC(=N)N)N(C)C(=O)c2ccccc2CSC[C@@H](C(=O)N2Cc3ccccc3C[C@H]2C(=O)N[C@@H](Cc2ccc(-c3ccccc3)cc2)C(=O)N[C@H](CCCCN)C(N)=O)NC1=O` [compound 205] (HELM PEPTIDE1{[meR].S.D.T.L.C.[Tic].[O=C([C@H](Cc1ccc(-c2ccccc2)cc1)N[*:1])[*:2]].[dK].[am]}|CHEM1{[O=C(c1ccccc1C[*:2])[*:1]]}$PEPTIDE1,CHEM1,1:R1-1:R1|PEPTIDE1,CHEM1,6:R3-1:R2$$$V2.0) was tested, and the IC50 was 100 to 1000 nM. `CC(C)C[C@@H]1NC(=O)[C@H]([C@@H](C)O)NC(=O)[C@H](CC(=O)O)NC(=O)[C@H](CO)NC(=O)[C@H](CCCNC(=N)N)N(C)C(=O)c2ccccc2CSC(C)(C)[C@@H](C(=O)N[C@@H](Cc2ccc3ccccc3c2)C(=O)N[C@@H](Cc2ccc(-c3ccccc3)cc2)C(=O)N[C@H](CCCCN)C(N)=O)NC1=O` [compound 206] gave an IC50 of over 1000 nM. `COC(=O)CC[C@H](NC(=O)[C@H](Cc1c[nH]c2ccccc12)NC(=O)[C@H]1NC(=O)[C@H](CC(C)C)NC(=O)[C@H]([C@@H](C)O)NC(=O)[C@H](CC(=O)O)NC(=O)[C@H](CO)NC(=O)[C@H](CCCNC(=N)N)N(C)C(=O)c2ccccc2CSC1(C)C)C(=O)N[C@H](CCCCN)C(N)=O` [compound 210] (HELM PEPTIDE1{[meR].S.D.T.L.[Pen].W.E.[dK].[am]}|CHEM1{[CO[*:1]]}|CHEM2{[O=C(c1ccccc1C[*:2])[*:1]]}$PEPTIDE1,CHEM1,8:R3-1:R1|PEPTIDE1,CHEM2,1:R1-1:R1|PEPTIDE1,CHEM2,6:R3-1:R2$$$V2.0) showed an IC50 of 100 to 1000 nM. In the case of `CC(C)C[C@@H]1NC(=O)[C@H]([C@@H](C)O)NC(=O)[C@H](CC(=O)O)NC(=O)[C@H](CO)NC(=O)[C@H](CCCNC(=N)N)N(C)C(=O)c2ccccc2CSC(C)(C)[C@@H](C(=O)N[C@@H](Cc2c[nH]c3ccccc23)C(=O)N[C@H](CCC(=O)O)C(=O)N[C@H](CCCCN)C(N)=O)NC1=O` [compound 212] (HELM PEPTIDE1{[meR].S.D.T.L.[Pen].W.[dE].[dK].[am]}|CHEM1{[O=C(c1ccccc1C[*:2])[*:1]]}$PEPTIDE1,CHEM1,1:R1-1:R1|PEPTIDE1,CHEM1,6:R3-1:R2$$$V2.0), the IC50 is reported as 25 to 100 nM.
